Experimental data as given in patent publication US6989435B2, “Compounds and methods to inhibit or augment an inflammatory response” (Cambridge University Technical Services Ltd., priority 1997, dated 2006).
Marks after values point to notes of the source that are not given here. Positions of bridges follow the written chain, without caps; N, C: chain ends. Non-standard residues stand in square brackets, D forms with d. Residues, ends and D or L forms follow the SMILES beside them. ξ: configuration not given here. ξI = CCC(C)C(N)C(=O)O

Assays:
[1] = Stability against acid hydrolysis; assay type: physicochemical; conditions: pH 2.0 for 2 hrs at 37° C.
Protocol: (§1) For example, to prepare a peptide 3 derivative, peptide 3(3-12)[MCP-1] was modified according to Jameson et al. (Nature, 368, 744 (1994)), which yielded CRD-Cys13leu4ile11peptide 3[MCP-1] (FIG. 4). CRD-Cys13eu4ile11peptide 3[MCP-1], which had very similar properties to peptide 3(1-12)[MCP-1] […] CRD-Cys13leu4ile11peptide 3[MCP-1] was also resistant to hydrolysis in vivo and allowed therapeutically useful plasma concentrations to be achieved (>10 μM 24 hours after a single intraperitoneal dose of 1 mg of CRD-Cys13leu4ile11peptide 3[MCP-1] in 250 μl saline).

[2] = Plasma concentration after a single intraperitoneal dose; assay type: in vivo; conditions: ip, 24 hours after a single intraperitoneal dose of 1 mg in 250 μl saline
Protocol: as §1

trypsin = test: Stability against enzymatic destruction; assay type: in vitro ADME; conditions: 5 units trypsin for 2 hrs at 37° C.
Protocol: as §1

[3] = tested on: chemokine receptors on THP-1 cells; test: Binding to THP-1 cells; design: species or system human; conditions: Table 7
Protocol: In general, specific binding is calculated as the amount of labeled agent bound in the absence of cold competitor minus the amount of labeled agent bound in the presence of cold competitor. The amount of specific binding in the presence of varied amounts of cold competitor can be used to determine the association constant for the agent, as well as the number of binding sites on the cell for the agent, using, for example, Scatchard Analysis. The agent may be labeled by radiolabeling (e.g., iodination) or with a suitable biochemical tag (e.g., biotin) or by addition of a photoactivatable crosslinking group. […]
For example, monocytes are suspended in RPMI 1640 medium without bicarbonate containing 0.2% bovine serum albumin and 0.1% azide. […] Filters are washed with 4 ml of cold wash buffer, and the radioactivity bound to the filters is counted in a γ-counter.
For competition studies, the IC50 is calculated with a curve fitting program (GraFit, Erithacus Software, London), using a four-parameter logistic, cpmbound=cpmmax/(1+([L]/IC50)^S)+cpmns, where cpmmax represents the binding without competitor, [L] is the competitor concentration, cpmns is the non-specific binding, and s is the slope factor. […]

Compound	degradation by acid hydrolysis [1] [%]	level at time molar at 24 h [2] [µM]	stability against enzymatic destruction (trypsin)	AVERAGE ED50 (peptide 2 family: estimated ka for binding to THP-1 cells) [3]
CCC(C)C1NC(=O)[C@@H](CCC(N)=O)NC(=O)[C@H](N)CSSC[C@H](C(=O)O)NC(=O)[C@@H](CC(C)C)NC(=O)[C@@H](CC(=O)O)NC(=O)[C@H]2CCCN2C(=O)[C@@H](CCCCN)NC(=O)[C@@H](CCC(N)=O)NC(=O)[C@@H](CCCCN)NC(=O)[C@@H](Cc2c[nH]c3ccccc23)NC1=O (stereo partly drawn) [CRD-Cys13Leu4ile11peptide 3] (H-[dC][dQ][ξI][dW][dK][dQ][dK][dP][dD][dL][dC]-OH; disulfide 1-11; N-terminus and C-terminus assumed)	< 10	> 10	stable	
ELRVIESGPHCANTEI [Pep2[IL8]]				1-10^c μM
HLKILNTPNCALQIV [Pep2[SDF1]]				1-10^c μM
